Test results as given in patent US20260294770A1, “FORMULATIONS OF NARINGENIN” (DEBUT BIOTECHNOLOGY, INC., priority 2023, published 2026).

What was measured:
UPK1A = experiment: Upregulation of gene expression and/or activity, 1% naringenin: UPK1A
Description: (§1) In certain embodiments, administration of a composition comprising naringenin leads to up-regulation of LCE5A, KRT77, ALOXE3, KRT1, HPGD, MUCL1, CASP14, WFDC12, KRT10, DNASE1L2, IL37, SERPINB12, HAL, UPK1A, CALML5, LCE2B, and/or MIR205. In certain embodiments, administration of a composition comprising naringenin leads to down-regulation of CCL11, CSF2, IL23A, IL11, BMP6, IL13RA2, C2CD4A, NR4A2, C2CD4B, FGF2, FARP4, GDF15, THBS1, HSPA1A, PTGS2, and/or DKK1. Tables 10 and 11 provide data for upregulation and downregulation respectively of certain genes after administration of compositions comprising 1% naringenin.
Uroplakin 1A (UPK1A) is involved in cell proliferation. The proteins in this family mediate signal transduction events that play a role in the regulation of cell development, activation, growth and motility. This encoded protein is found in the asymmetrical unit membrane (AUM) where it can complex with other transmembrane 4 superfamily proteins. UP1A may play a role in normal bladder epithelial physiology, possibly in regulating membrane permeability of superficial umbrella cells or in stabilizing the apical membrane through AUM/cytoskeletal interactions. In certain embodiments, compositions comprising naringenin leads to upregulation of UPK1A, which leads to increase cell proliferation, including the cells in the skin and the underlying tissues. […]

C2CD4A = experiment: Downregulation of gene expression and/or activity, 1% naringenin: C2CD4A; conditions: negative = downregulation
Description: as §1

psoriasis models = conditions: cited from earlier work
TNFα = TNFα concentration in stimulated (stressed) normal human epidermal keratinocytes (ELISA); assay type: cell-based; conditions: for TNFα concentration: LPS + Poly:IC stressed NHEK, stimulated control 202.6
Description: Normal Human Epidermal Keratinocytes (NHEK) were stressed with a cocktail of lipopolysaccharide (LPS) and Polyinosinic-polycytidylic acid sodium salt (Poly:IC), external aggressors capable of inducing an inflammatory response. Stressed cells were subsequently treated with test articles and reduction in inflammatory markers was measuring by ELISA. Tables 19 and 20, provided below, discloses data for TNFα and IL-6 concentrations, respectively, in stressed normal human epidermal keratinocytes.

[1] = ABTS antioxidant assay (aqueous); assay type: biochemical; conditions: for % Radical Inhibition: aqueous
Description: The 2,2′-Azinobis [3-ethylbenzothiazoline-6-sulfonic acid]-diammonium salt (ABTS) antioxidant assay is designed to evaluate the antioxidant activity of compositions comprising naringenin in an aqueous medium. ABTS+ solution is generated as a free radical and used to measure relative ability of a compound to scavenge free radicals. Reduction of the absorbance at 734 nm was standardized to solvent control as an indication of ABTS+ scavenging.

mouse models = conditions: intraperitoneal; cited from earlier work
[2] = DPPH antioxidant activity assay (organic medium); assay type: biochemical; conditions: for % Radical Inhibition: organic medium
Description: The 2,2-diphenyl-1-picrylhydrazyl (DPPH) antioxidant assay is designed to evaluate the antioxidant activity of compositions comprising naringenin in an organic medium.
2,2-diphenyl-1-picrylhydrazyl (DPPH) is a stable free radical used to evaluate free radical scavenging capacity of a material. In the presence of an antioxidant DPPH is reduced, resulting in the formation of a colorless solution. Reduction of absorbance at 517 nm is standardized to solvent control as an indication of DPPH scavenging.

[3] = Glycation inhibition assay; assay type: biochemical; conditions: for IC50 glycation inhibition: calculated
Procedure: The assay was conducted to evaluate the glycation inhibition activity of compositions comprising naringenin.
Nonenzymatic glycation can occur when glucose reacts with proteins, forming a Schiff base intermediate that subsequently undergoes Amadori rearrangement to form glycosylated proteins, when they react with skin proteins to form Advanced Glycation End products (AGE). AGE formation can result in loss of skin elasticity and impaired cellular function. The glycation inhibition ability of a compound is measured by change in fluorescence m relative to solvent control.

NR4A2 = experiment: Downregulation of gene expression and/or activity, 1% naringenin: NR4A2
Description: as §1
Nuclear receptor subfamily 4 group A member 2 (NR4A2) plays a role in the inflammatory response. In certain embodiments, downregulation of NR4A2 results in reduction in inflammation. In certain embodiments, the administration of composition comprising naringenin results in at least about 5 to about 15-fold downregulation of expression and/or activity of NR4A2. In certain embodiments, the administration of composition comprising naringenin results in at least about ten (10) fold downregulation of expression and/or activity of NR4A2.

CALML5 = experiment: Upregulation of gene expression and/or activity, 1% naringenin: CALML5
Description: as §1
Calmodulin like 5 (CALML5) plays a role in cell growth. The enzyme encoded by CALML5 is a novel calcium binding protein expressed in the epidermis and related to the calmodulin family of calcium binding proteins. It plays a key role in cell growth and proliferation, including playing a key role in terminal differentiation of keratinocytes. In certain embodiments, administration of compositions comprising naringenin leads to upregulation of CALML5, which leads to increase cell proliferation, including the cells in the skin and the underlying tissues. […] In certain embodiments, the administration of composition comprising naringenin results in at least about 2 to about 10-fold upregulation of expression and/or activity of CALML5. […]

O=C1C[C@@H](c2ccc(O)cc2)Oc2cc(O)cc(O)c21 [naringenin, (2S)-5,7-Dihydroxy-2-(4-hydroxyphenyl)-2,3-dihydro-4H-1-benzopyran-4-one]
Fold-increase in expression and/or activity of UPK1A (UPK1A): ~10 fold | Fold-increase (downregulation table) C2CD4A (C2CD4A): −10 fold | Skin barrier restoration (psoriasis models): restoration of skin barrier | TNFα concentration (TNFα; 0.0001% naringenin, p-value 6.99E−07): 94.3 pg/mL | TNFα concentration (TNFα; 0.0045% naringenin, p-value 0.002047): 43.8 pg/mL | TNFα concentration (TNFα; 0.007% naringenin, p-value 0.002961): 70.3 pg/mL | TNFα concentration (TNFα; 0.01% naringenin, p-value 0.004838): 104.2 pg/mL | inhibition at 0.0001 % (TNFα; Homo sapiens, NHEK, 0.0001% naringenin, vs stimulated control, p-value 6.99E−07, read-out: TNFα % Reduction vs Treated): 53.4% | inhibition at 0.0045 % (TNFα; Homo sapiens, NHEK, 0.0045% naringenin, vs stimulated control, p-value 0.002047, read-out: TNFα % Reduction vs Treated): 78.4% | inhibition at 0.007 % (TNFα; Homo sapiens, NHEK, 0.007% naringenin, vs stimulated control, p-value 0.002961, read-out: TNFα % Reduction vs Treated): 65.3% | inhibition at 0.01 % (TNFα; Homo sapiens, NHEK, 0.01% naringenin, vs stimulated control, p-value 0.004838, read-out: TNFα % Reduction vs Treated): 48.6% | Reduction of TNFα (in words) (TNFα; stressed keratinocytes): to non-stressed levels | % Radical Inhibition ([1]; 0.0045 % w/w naringenin): 47.50% | % Radical Inhibition ([1]; 0.009 % w/w naringenin): 55.45% | % Radical Inhibition ([1]; 0.018 % w/w naringenin): 65.39% | IC50 antioxidant activity (ABTS) ([1]; aqueous solvent system, calculated): 0.0058 % w/w | Lowest concentration with antioxidant activity ([1]; aqueous systems): ≤ 0.001 % w/w | Cytokine production (mouse models): lowers cytokine production | Edema (mouse models): effectively inhibits edema | Symptoms associated with atopic dermatitis (mouse models): lowers symptoms associated with atopic dermatitis | UVB-induced skin damage (mouse models): inhibits UVB-induced skin damage | % Radical Inhibition ([2]; 0.50 % w/w naringenin): 18.82% | % Radical Inhibition ([2]; 1.00 % w/w naringenin): 28.44% | % Radical Inhibition ([2]; 2.00 % w/w naringenin): 46.82% | Lowest concentration with antioxidant activity ([2]; organic solvent systems): ≤ 0.2 % w/w | Lowest concentration inhibiting glycation [3]: ≤ 0.002 % w/w | % Enzyme Inhibition (glycation inhibition) ([3]; 0.008 % w/w naringenin): 27.87% | % Enzyme Inhibition (glycation inhibition) ([3]; 0.016 % w/w naringenin): 45.49% | % Enzyme Inhibition (glycation inhibition) ([3]; 0.031 % w/w naringenin): 60.22% | % Enzyme Inhibition (glycation inhibition) ([3]; 0.0625 % w/w naringenin): 69.05% | IC50 glycation inhibition [3]: 0.019 % w/w | IC50 glycation inhibition ([3]; Example 7): 0.019% | fold downregulation in expression and/or activity of NR4A2 (NR4A2): ~9 fold | Fold-increase (downregulation table) NR4A2 (NR4A2; negative = downregulation): −9 fold | Fold-increase in expression and/or activity of CALML5 (CALML5): ~7 fold
